What was measured:
Assay type in all cases: cell-based
[1] = system: Enterococcus faecalis 276; experiment: MIC, standard broth micro-dilution assay, EF 276
Experimental: (§1) The antibacterial efficacy of the present compounds is illustrated by Table III. The minimal inhibitory concentrations (MICs) were determined using a standard broth micro-dilution assay.

[2] = system: Sensitive Enterococcus faecium and faecalis; experiment: MIC, standard broth micro-dilution assay, Sensitive; settings: geometric mean of 4-6 isolates
Experimental: as §1

[3] = system: Staphylococcus aureus 489; experiment: MIC, standard broth micro-dilution assay, SA 489
Experimental: as §1

Enterococcus faecium 180 = experiment: MIC, standard broth micro-dilution assay, EF 180
Experimental: as §1

[4] = system: Staphylococcus aureus 491; experiment: MIC, standard broth micro-dilution assay, SA 491
Experimental: as §1

Escherichia coli EC14 = experiment: MIC, standard broth micro-dilution assay, EC 14
Experimental: as §1

[5] = system: Staphylococcus epidermidis 270; experiment: MIC, standard broth micro-dilution assay, SE 270
Experimental: as §1

[6] = system: Staphylococcus aureus 446; experiment: MIC, standard broth micro-dilution assay, SA 446
Experimental: as §1

[7] = system: Staphylococcus aureus X400; experiment: MIC, standard broth micro-dilution assay, SA X400
Experimental: as §1

[8] = system: Staphylococcus aureus S13E
Experimental: as §1

[9] = system: Resistant Enterococcus faecium and faecalis; experiment: MIC, standard broth micro-dilution assay, Resistant; settings: geometric mean of 4-6 isolates
Experimental: as §1

[10] = system: Enterococcus faecium 180-1; experiment: MIC, standard broth micro-dilution assay, EF 180-1
Experimental: as §1

[11] = system: Staphylococcus aureus X778; experiment: MIC, standard broth micro-dilution assay, SA X778
Experimental: as §1

[12] = system: Staphylococcus aureus 447; experiment: MIC, standard broth micro-dilution assay, SA 447
Experimental: as §1

[13] = system: Enterococcus gallinarum 245; experiment: MIC, standard broth micro-dilution assay, EG 245
Experimental: as §1

[14] = system: Staphylococcus aureus SA1199; experiment: MIC, standard broth micro-dilution assay, SA 1199
Experimental: as §1

[15] = system: Haemophilus influenzae RD; experiment: MIC, standard broth micro-dilution assay, HFRD
Experimental: as §1

[16] = system: Staphylococcus haemolyticus 105; experiment: MIC, standard broth micro-dilution assay, SH 105
Experimental: as §1

[17] = system: Enterococcus faecalis 2041; experiment: MIC, standard broth micro-dilution assay, EF 2041
Experimental: as §1

[18] = system: Staphylococcus haemolyticus 415; experiment: MIC, standard broth micro-dilution assay, SH 415
Experimental: as §1

[19] = system: Staphylococcus aureus SA1199A; experiment: MIC, standard broth micro-dilution assay, SA 1199A
Experimental: as §1

SMILES | minimal inhibitory concentration (MIC), EF 276 [1] | minimal inhibitory concentration (MIC), Sensitive [2] | minimal inhibitory concentration (MIC), SA 489 [3] | minimal inhibitory concentration (MIC), EF 180 (Enterococcus faecium 180) | minimal inhibitory concentration (MIC), SA 491 [4] | minimal inhibitory concentration (MIC), EC 14 (Escherichia coli EC14) | minimal inhibitory concentration (MIC), SE 270 [5] | minimal inhibitory concentration (MIC), SA 446 [6] | minimal inhibitory concentration (MIC), SA X400 [7] | minimal inhibitory concentration (MIC), SA S13E [8] | minimal inhibitory concentration (MIC), Resistant [9] | minimal inhibitory concentration (MIC), EF 180-1 [10] | minimal inhibitory concentration (MIC), SA X778 [11] | minimal inhibitory concentration (MIC), SA 447 [12] | minimal inhibitory concentration (MIC), EG 245 [13] | minimal inhibitory concentration (MIC), SA 1199 [14] | minimal inhibitory concentration (MIC), HFRD [15] | minimal inhibitory concentration (MIC), SH 105 [16] | minimal inhibitory concentration (MIC), EF 2041 [17] | minimal inhibitory concentration (MIC), SH 415 [18] | other results
CCCCCCNC(CC(C)C)C(=O)NC1C(=O)NC(CC(N)=O)C(=O)NC2C(=O)NC3C(=O)NC(C(=O)NC(C(=O)O)c4cc(O)cc(O)c4-c4cc3ccc4O)C(OC3CC(C)(N)C(O)C(C)O3)c3ccc(c(Cl)c3)Oc3cc2cc(c3OC2OC(CO)C(O)C(O)C2OC2CC(C)(N)C(O)C(C)O2)Oc2ccc(cc2Cl)C1O [Example 39, N^1-(N-n-hexyl-D-leucine) derivative of desleucylA82846B] | ≦.06 | 0.38 | ≦.06 | 2 | ≦.06 | >64 | 0.25 | ≦.06 | ≦.06 | 0.125 | 45 | no growth | ≦.06 | 0.5 | 0.5 | 0.125 | no | 0.5 | ≦.06 | 2 | minimal inhibitory concentration (MIC), SA 1199A [19]: ≦.06
CC1OC(OC2c3ccc(c(Cl)c3)Oc3cc4cc(c3OC3OC(CO)C(O)C(O)C3OC3CC(C)(N)C(O)C(C)O3)Oc3ccc(cc3Cl)C(O)C(NC(=O)C(Cc3ccccc3)N(C)C(=O)OC(C)(C)C)C(=O)NC(CC(N)=O)C(=O)NC4C(=O)NC3C(=O)NC2C(=O)NC(C(=O)O)c2cc(O)cc(O)c2-c2cc3ccc2O)CC(C)(N)C1O [Example 40, N^1-(N-BOC-N-methyl-D-phenylalanine) derivative of desleucylA82846B] | 1 | 9.2 | 4 | >64 | 2 | >64 | 4 | 4 | 4 | 4 | >128 | 4 | 4 | 8 | 16 | 4 | >64 | 4 | 2 | 64 | minimal inhibitory concentration (MIC), SA 1199A [19]: 2
CC(C)C(C(=O)NC1C(=O)NC(CC(N)=O)C(=O)NC2C(=O)NC3C(=O)NC(C(=O)NC(C(=O)O)c4cc(O)cc(O)c4-c4cc3ccc4O)C(OC3CC(C)(N)C(O)C(C)O3)c3ccc(c(Cl)c3)Oc3cc2cc(c3OC2OC(CO)C(O)C(O)C2OC2CC(C)(N)C(O)C(C)O2)Oc2ccc(cc2Cl)C1O)N(C)C(=O)OC(C)(C)C [Example 41, N^1-(N-BOC-N-methyl-D-valine) derivative of desleucylA82846B] | 8 | 84 | 16 | >64 | 4 | >64 | 8 | 32 | 16 | 16 | >128 | 4 | 8 | 32 | >64 | 16 | no | 16 | 8 | 64 | minimal inhibitory concentration (MIC), SA 1199A [19]: 8
